{
  "source": "patent EP4682145A1",
  "about": "“BENZOHETEROCYCLIC COMPOUND, AND PREPARATION METHOD THEREFOR AND USE THEREOF” (Cascade Pharmaceuticals, Inc., priority 2023, dated 2024)",
  "key": {"[1]": {"test_system": "normal C57BL6/J mice", "assay": "Oral glucose tolerance test (OGTT) in normal C57BL6/J mice", "format": "in vivo", "settings": "1 mg/kg gavage, single dose; for AUC 0-120 minutes: blood glucose AUC", "protocol": "Eighteen normal male C57BL6/J mice (8-9 weeks old) were selected and randomly divided into 3 groups based on body weight and blood glucose levels, with 6 mice in each group. On the day of the OGTT, fasting was initiated at 8:30 AM. At 11:30 AM, drug interventions were administered via gavage (vehicle control, compound 14, 1 mg/kg, and compound 169, 1 mg/kg). At 1:30 PM, glucose (2 g/kg) was administered via gavage, while the blank control group received the vehicle control orally (2% DMSO + 15% solutol + 83% DDW solution) at a dosing volume of 10 mL/kg. Blood glucose measurements during the OGTT were taken at the following time points: 0, 15, 30, 60, 90, and 120 minutes after glucose administration.\nBlood glucose levels were measured at 0, 15, 30, 60, and 120 minutes after glucose administration. The area under the curve (AUC) for blood glucose over 120 minutes was calculated. [formula]\nNote: BG0, BG15, BG30, BG60, BG90, and BG120 represent the blood glucose levels at 0, 15, 30, 60, 90, and 120 minutes after glucose administration, respectively.\n(§1) Data were expressed as mean ± standard deviation. One-way ANOVA was employed for statistical analysis, with p < 0.05 considered statistically significant."}, "[2]": {"molecular_target": "T1, human FFAR1 (GPR40) (Homo sapiens, UniProt O14842)", "T1 construct": "Flag; expressed in transfected cells; host or cells: HEK293T", "T1 sequence (O14842 whole entry)": "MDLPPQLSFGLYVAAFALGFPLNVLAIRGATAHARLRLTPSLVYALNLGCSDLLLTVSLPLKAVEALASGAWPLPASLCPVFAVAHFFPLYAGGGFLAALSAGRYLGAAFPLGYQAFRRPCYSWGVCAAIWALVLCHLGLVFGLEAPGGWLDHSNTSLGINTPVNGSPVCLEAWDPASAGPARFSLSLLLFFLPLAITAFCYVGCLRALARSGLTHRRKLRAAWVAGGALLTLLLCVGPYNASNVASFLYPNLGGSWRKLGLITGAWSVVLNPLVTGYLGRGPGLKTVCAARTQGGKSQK", "assay": "NFAT-RE-based reporter gene activity assay (Dual-Glo luciferase) for GPR40 agonistic activity in co-transfected HEK293T cells", "format": "cell-based", "settings": "4-hour treatment", "procedure,_shortened": "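HEK293T cells co-transfected with human FFAR1, NFAT-RE firefly luciferase and TK-Renilla plasmids; 24 h later treated 4 h with 10 half-log compound dilutions from 1 µM. Firefly/Renilla ratio normalised to DMSO; EC50 from four-parameter fit.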"}, "[3]": {"test_system": "C57BL6/J mice", "assay": "In vivo pharmacodynamic assay for non-alcoholic fatty liver disease (high-fat, high-cholesterol, high-fructose diet mice)", "settings": "for Hepatic Hydroxyproline / Total Liver Hydroxyproline (µg/liver): liver; for ALT (U/L) / AST (U/L): serum", "protocol": "Normal male C57BL6/J mice ([…]) were fed a high-fat, high-cholesterol, high-fructose diet (D09100310, Research Diets) for 20 weeks. Based on body weight and biochemical data, the mice were randomly divided into groups, with 6 mice per group. The compound 169 (0.03, 0.1, and 0.6 mg/kg) was administered via oral gavage. The positive control was MGL3196 (1 mg/kg), and the blank control group consisted of mice of the same strain and age fed a normal diet for the same duration. The blank control and model control groups were given the vehicle (15% solutol + 85% DDW), totaling 6 groups. Administration was performed once daily for 28 days. After overnight fasting, on day 29 at the experimental endpoint, blood was collected from the heart after CO2 euthanasia. Serum ALT and AST biochemical indicators were measured, and liver tissue was harvested for hepatic hydroxyproline content determination.\nBlood was collected using anticoagulant-free tubes, allowed to stand at room temperature for 30 minutes, and then centrifuged at 4000 rpm for 10 minutes to separate serum, which was tested by Dian Diagnostics. Approximately 50 mg of liver tissue was taken from each mouse and tested according to the hydroxyproline assay kit method (Nanjing Jiancheng, Cat. No.: A030-2-1).\nas §1"}, "[4]": {"settings": "0.03 mpk oral gavage once daily for 28 days"}, "[5]": {"settings": "0.1 mpk oral gavage once daily for 28 days"}, "[6]": {"settings": "0.6 mpk oral gavage once daily for 28 days"}},
  "data": [
    {"smiles": "COc1ccc(F)c(N2CCC(c3oc4cc([C@@H](CC(=O)O)C5CC5)ccc4c3-c3ccc(C(C)(C)C)cc3)CC2)c1", "note": "[Compound 169]", "values": [
      {"measurement": "Blood Glucose", "setting": "[1]; 0 minutes after glucose (2 g/kg)", "value": "7.88 ± 0.62", "unit": "mmol/L"},
      {"measurement": "Blood Glucose", "setting": "[1]; 15 minutes after glucose (2 g/kg)", "value": "12.78 ± 1.65", "unit": "mmol/L"},
      {"measurement": "Blood Glucose", "setting": "[1]; 30 minutes after glucose (2 g/kg)", "value": "9.28 ± 1.32", "unit": "mmol/L"},
      {"measurement": "Blood Glucose", "setting": "[1]; 60 minutes after glucose (2 g/kg)", "value": "9.28 ± 1.32", "unit": "mmol/L"},
      {"measurement": "Blood Glucose", "setting": "[1]; 90 minutes after glucose (2 g/kg)", "value": "7.67 ± 2.31", "unit": "mmol/L"},
      {"measurement": "Blood Glucose", "setting": "[1]; 120 minutes after glucose (2 g/kg)", "value": "7.13 ± 1.25", "unit": "mmol/L"},
      {"measurement": "AUC 0-120 minutes", "setting": "[1]; 1 mg/kg", "value": "1075±66.01"},
      {"measurement": "AUC 0-120 minutes", "setting": "[1]; listed as compound 169, 1 mg/kg", "value": "significantly reduced"},
      {"measurement": "EC50", "setting": "[2]", "value": "100 to 500", "unit": "nM"},
      {"measurement": "Efficacy (%)", "setting": "[2]; class symbols", "value": "††† (Efficacy (%) > 150)"},
      {"measurement": "Hepatic Hydroxyproline", "setting": "[3]; [4]", "value": "128.06 ± 55.18", "unit": "µg/g"},
      {"measurement": "Total Liver Hydroxyproline (µg/liver)", "setting": "[3]; [4]", "value": "308.56±121.44", "unit": "µg/liver"},
      {"measurement": "ALT (U/L)", "setting": "[3]; [4]", "value": "148±81.95", "unit": "U/L"},
      {"measurement": "AST (U/L)", "setting": "[3]; [4]", "value": "204.5±79.09", "unit": "U/L"},
      {"measurement": "Hepatic Hydroxyproline", "setting": "[3]; [5]", "value": "119.16 ± 39.65", "unit": "µg/g"},
      {"measurement": "Total Liver Hydroxyproline (µg/liver)", "setting": "[3]; [5]", "value": "266.4±80.67", "unit": "µg/liver"},
      {"measurement": "ALT (U/L)", "setting": "[3]; [5]", "value": "110±37.12", "unit": "U/L"},
      {"measurement": "AST (U/L)", "setting": "[3]; [5]", "value": "156±30.59", "unit": "U/L"},
      {"measurement": "Hepatic Hydroxyproline", "setting": "[3]; [6]", "value": "85.24 ± 47.63", "unit": "µg/g"},
      {"measurement": "Total Liver Hydroxyproline (µg/liver)", "setting": "[3]; [6]", "value": "187.94±110.56", "unit": "µg/liver"},
      {"measurement": "ALT (U/L)", "setting": "[3]; [6]", "value": "103.8±35.53", "unit": "U/L"},
      {"measurement": "AST (U/L)", "setting": "[3]; [6]", "value": "163.2±42.98", "unit": "U/L"},
      {"measurement": "liver protection and liver fibrosis inhibition effects", "setting": "[3]; doses of 0.03, 0.1, and 0.6 mg/kg, compared with the model control", "value": "reduced ALT, AST, and liver hydroxyproline levels"}
    ]}
  ]
}
